Laboratory results taken from US20220326219A1, “METHODS AND DEVICE FOR THE ANALYSIS OF TISSUE SAMPLES” (PRECOMB THERAPEUTICS AG, priority 2019, published 2022).

Assays:
[1] = tested on: living, perfused microvessels (vasculature) of in vitro vascularized microtumors; conditions: VMT platform, Sobrino et al. 2016; cited from earlier work
[2] = tested on: pancreatic pdx microtumors 12558; assay: Drug efficacy on PDX-derived pancreatic microtumors by tumor growth kinetics over 11 days; format: cell-based; conditions: drugs at cmax values in vivo, 11 days monitoring
[3] = tested on: pancreatic patient-derived xenograft; assay: In vivo efficacy in pancreatic patient-derived xenograft (PDX-mouse model); conditions: average response of 5 individual animals
Description: To compare whether the in vitro efficacy analysis is matching in vivo (mouse) efficacy drug response data as obtained, pancreatic patient-derived xenograft (PDX-mouse model) and pancreatic microtumors derived from PDX tumor tissue were generated. Two single drugs (Gemcitabine and Abraxane) and two drug combinations (Gemcitabine:Erlotinib and Gemcitabine:Abraxane) were tested. In vivo data points reflect the average response of 5 individual animals.

SMILES	effect on vasculature of vascularized microtumors [1]	drug efficacy on microtumors (t11/t0 and t11treated/t11control) [2]	in vivo (mouse) efficacy drug response [3]
N#CC1(c2ccc(NC(=O)c3cccnc3NCc3ccncc3)cc2)CCCC1 [Apatinib]	not effective	–	–
Nc1ccn([C@@H]2O[C@H](CO)[C@@H](O)C2(F)F)c(=O)n1 [Gemcitabine]	–	highest efficacy	highest efficacy
O=C1[O][Pt]2([NH][C@@H]3CCCC[C@H]3[NH]2)[O]C1=O [Oxaliplatin]	–	least effective	–
